One molecule from US9408848B2, “Fluorescent CDK inhibitors for treatment of cancer” (Georgetown University, priority 2008, dated 2016) can be followed below.

Assay [1] relates to T1, CDK1/cyclinA (Homo sapiens).
T1 construct: purchased Millipore, Dundee, UK (screening service)
Put plainly: Kinase assay ([γ-33P]-ATP, histone H1). The assay is classed as biochemical. As to conditions: read-out: % inhibition of kinase activity, CDK1/cyclinA. As to the method:
(§1) The final reaction was carried out in a 25 μL solution.
(§2) Briefly assays were performed with a Biomek 2000 Laboratory Automation Workstation in a 96-well format (Beckman instruments, Palo Alto, Calif., U.S.A) for 40 min at ambient temperature in 25 μL incubations using [γ-^33P]-ATP. In a final reaction volume of 25 μL corresponding CDK/cyclin (h) (5-10 mU) was incubated with 8 mM MOPS pH 7.0, 0.2 mM EDTA, 0.1 mg/mL histone H1, 10 mM MgAcetate and [γ-^33P-ATP](specific activity approx. 500 cpm/pmol, concentration as required). The reaction was initiated by the addition of the MgATP mix. After incubation for 40 min at room temperature, the reaction was stopped by the addition of 5 μL of a 3% phosphoric acid solution.

Assay [2] concerns the target T2, CDK1/cyclinB (Homo sapiens, UniProt P06493).
T2 construct: purchased Millipore, Dundee, UK (screening service)
The experiment in a line: Kinase assay ([γ-33P]-ATP, histone H1). As to conditions: compound 0.1 μM. In kind it is biochemical. Here is the method:
as §1, §2

For assay [3], the target named is T3, CDK2/cyclinE (Homo sapiens, UniProt P24941).
T3 construct: purchased Millipore, Dundee, UK (screening service)
The experiment in a line: Kinase assay ([γ-33P]-ATP, histone H1). In kind it is biochemical. As to conditions: read-out: % inhibition of kinase activity, CDK2/cyclinE. As to the method: as §1, §2

Assay [4] addresses T4, CDK3/cyclinE (Homo sapiens, UniProt Q00526).
T4 construct: purchased Millipore, Dundee, UK (screening service)
Put plainly: Kinase assay ([γ-33P]-ATP, histone H1). In kind it is biochemical. Conditions: read-out: % inhibition of kinase activity, CDK3/cyclinE. Here is the method: as §1, §2

In assay [5] the target is T5, CDK7/cyclinH/MATI (Homo sapiens, UniProt P50613).
T5 construct: purchased Millipore, Dundee, UK (screening service)
The experiment in a line: Kinase assay ([γ-33P]-ATP, histone H1). In kind it is biochemical. Conditions: read-out: % inhibition of kinase activity, CDK7/cyclinH/MATI. As to the method:
. The final reaction was carried out in a 25 μL solution. The respective kinases (at […] were incubated with 8 mM MOPS (pH 7.0), 0.2 mM EDTA, 0.1 mg/ml histone H1, 10 mM MgAcetate and [γ-33P-ATP] (specific activity approximately 500 cpm/pmol, concentration as required). The reaction was then initiated by the addition of the MgATP mix. The reaction was stopped after 40 min of incubation by adding 5 μL of a 3% phosphoric acid solution. 10 μL of the reaction was spotted onto a P30 filter mat and washed 3 times for 5 min in 75 mM phosphoric acid and one in methanol prior to drying and counted radioactivity by scintillation counting. […]. Table 1 summarizes the cytotoxic effects of VMY compounds and its controls on breast cancer cell line.
as §2, with “Kinase selectivity of compounds VMY-1-101 and VMY-1-103 were screened at Millipore, Dundee, UK. Briefly” for “Briefly”, “solution. From the reaction, 10 μL was spotted onto a P30 filtermat and washed three times for 5 minutes in 75 mM phosphoric acid and once in methanol prior to dying and scintillation counting.” for “solution.”

Assay [6] relates to MCF-7. Put plainly: Cell viability assay (WST-1). In kind it is cell-based, human. As to conditions: Homo sapiens, MCF7, 48 h, read-out: IC50 (concentration yielding 50% growth inhibition). As to the method:
(§3) (10%), 2 mM L-glutamine, and 50 μg/mL each of antibiotics, namely penicillin, streptomycin, and neomycin at 37° C. in a humidified incubator containing 5% CO2
(§4) Briefly human breast cancer cells were seeded into a 96-well plate at 3000 cells per well in DMEM containing 10% FBS. Following 24 hours attachment period, compounds were dissolved in DMSO and serially diluted in tissue culture media and added to the cells in triplicate, and incubated for 48 h at 37° C. Control cells were treated with equal amount of DMSO. After 48 h incubation, cell viability was measured by WST-1 assay according to the manufacturer's instructions (Roche). […] The formazan absorbance, which correlates to the number of living cells, was measured at 450 nm and 630 nm as reference filter using a microplate reader. (Ultramark, Microplate Imaging System, Bio-Rad). The IC50 was calculated from the graph of the log of the compound concentration versus the fraction of the surviving cells.

Assay [7] has as its system MDA-MB-231. Put plainly: Cell viability assay (WST-1). In kind it is cell-based, human. As to conditions: Homo sapiens, MDA-MB-231, 48 h, read-out: IC50 (concentration yielding 50% growth inhibition). As to the method:
as §3, §4

Assay [8] deals with MCF-7. The experiment in a line: Cell cycle analysis by flow cytometry (propidium iodide). The assay is classed as cell-based, human. As to the method: (§5) 5 μM concentrations were used for all drugs tested. The cells were exposed to the vehicle (DMSO) or […] of the CDK inhibitors for 24 hrs. The cell cycle distribution was then assessed using standard procedures.
Background: A flow cytometer gives signals particle by particle.

For assay [9], the system named is MDA-MB-231. Described as above. The assay is classed as cell-based, human. Here is the method:
as §5

Assay [10] deals with MDA-MB-231 cells. Put plainly: Apoptotic signaling, Western blot of apoptosis related proteins. As to conditions: MDA-MB-231, 10 μM, 48 hours. In kind it is cell-based, human. As to the method: In order to understand whether VMY-1-101 and VMY-1-103 compounds were able to induce apoptotic cell death, the expression of anti- and pro-apoptotic proteins in MDA-MB-231 cells following treatment with 10 μM drugs for 48 hours was evaluated first. […] This is further confirmed with proapoptotic 116 kDa poly (ADP-ribose) polymerase protein (PARP) into its 89-kDa fragments. […].
Western blotting was performed according to literature procedure. In brief, cell pellets were collected at the indicated times after treatment with compounds, suspended in 100 μL of lysis buffer (50 mM Tris-HCl, 150 mM NaCl, 1 mM EGTA, 1 mM EDTA, 20 mM NaF, 100 mM Na3VO4, 0.5% NP-40, 1% Triton X-100, 1 mM PMSF, 5 μg/ml aprotinin, 5 μg/ml leupeptin), vortexed twice and incubated in an ice bath for 30 min. Lysates were cleared by centrifugation at 12000 rpm for 15 min at 4° C. and protein was estimated by detergent compatible BCA protein assay kit (Pierce). Equivalent amounts of total proteins were resolved by SDS-PAGE (10%) and transferred to PVDF membrane. Membranes were blocked by 5% non-fat powdered milk in TBST overnight. Membranes were incubated with indicated primary antibodies for 2 hours followed by HRP-conjugated secondary antibodies for 1 hr and developed using enhanced chemiluminescence kit (Perkin Elmer).
For orientation: A western blot detects proteins with antibodies after separation by electrophoresis.

T2 sequence (P06493 whole entry): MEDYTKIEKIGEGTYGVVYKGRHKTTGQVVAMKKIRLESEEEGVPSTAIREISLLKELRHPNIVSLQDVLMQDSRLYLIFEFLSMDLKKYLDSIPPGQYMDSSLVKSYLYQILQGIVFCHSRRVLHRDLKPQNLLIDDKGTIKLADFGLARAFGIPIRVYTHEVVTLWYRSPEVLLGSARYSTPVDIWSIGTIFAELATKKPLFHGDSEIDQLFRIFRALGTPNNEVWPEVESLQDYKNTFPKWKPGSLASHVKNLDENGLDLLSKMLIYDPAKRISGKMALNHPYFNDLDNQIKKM
T2 sequence (P14635 whole entry partner): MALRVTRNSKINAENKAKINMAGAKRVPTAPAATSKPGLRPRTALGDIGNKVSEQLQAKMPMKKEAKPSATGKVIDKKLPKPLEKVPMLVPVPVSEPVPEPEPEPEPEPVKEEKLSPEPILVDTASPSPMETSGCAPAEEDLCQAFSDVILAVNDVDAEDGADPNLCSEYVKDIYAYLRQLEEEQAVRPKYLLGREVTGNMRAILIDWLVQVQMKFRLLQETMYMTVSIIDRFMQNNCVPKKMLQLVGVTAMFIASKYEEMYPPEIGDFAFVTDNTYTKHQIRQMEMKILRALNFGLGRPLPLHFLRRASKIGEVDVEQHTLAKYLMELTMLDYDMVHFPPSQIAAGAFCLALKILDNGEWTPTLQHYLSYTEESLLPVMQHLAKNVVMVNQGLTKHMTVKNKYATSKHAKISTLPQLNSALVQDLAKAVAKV
T5 sequence (P50613 whole entry): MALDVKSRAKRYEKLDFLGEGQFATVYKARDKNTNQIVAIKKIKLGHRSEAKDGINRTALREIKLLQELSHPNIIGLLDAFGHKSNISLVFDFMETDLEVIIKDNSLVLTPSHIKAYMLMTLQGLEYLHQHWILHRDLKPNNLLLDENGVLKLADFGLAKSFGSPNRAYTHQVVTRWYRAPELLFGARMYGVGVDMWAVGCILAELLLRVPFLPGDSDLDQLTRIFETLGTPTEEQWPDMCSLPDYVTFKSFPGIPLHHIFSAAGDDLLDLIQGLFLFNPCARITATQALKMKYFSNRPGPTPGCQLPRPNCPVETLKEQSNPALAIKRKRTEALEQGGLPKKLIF
T5 sequence (P51946 whole entry partner): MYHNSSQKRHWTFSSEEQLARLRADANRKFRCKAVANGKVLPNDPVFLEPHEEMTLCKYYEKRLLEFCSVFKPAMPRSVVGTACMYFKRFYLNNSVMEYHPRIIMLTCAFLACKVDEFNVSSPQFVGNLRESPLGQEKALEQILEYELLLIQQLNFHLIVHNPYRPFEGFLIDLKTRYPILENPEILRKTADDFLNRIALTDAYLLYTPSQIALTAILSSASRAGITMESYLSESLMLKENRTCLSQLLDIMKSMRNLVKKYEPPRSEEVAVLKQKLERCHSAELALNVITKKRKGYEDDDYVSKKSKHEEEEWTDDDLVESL
T5 sequence (P51948 whole entry partner): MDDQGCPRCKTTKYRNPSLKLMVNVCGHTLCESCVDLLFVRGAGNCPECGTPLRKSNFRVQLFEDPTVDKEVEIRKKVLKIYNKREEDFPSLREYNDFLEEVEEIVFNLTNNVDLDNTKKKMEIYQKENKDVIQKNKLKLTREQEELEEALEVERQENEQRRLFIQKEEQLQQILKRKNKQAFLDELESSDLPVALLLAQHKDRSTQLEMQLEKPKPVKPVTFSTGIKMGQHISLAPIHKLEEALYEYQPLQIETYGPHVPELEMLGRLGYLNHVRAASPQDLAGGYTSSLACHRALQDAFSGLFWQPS

Regarding `CC[C@H](CO)Nc1nc(Nc2ccc(C(=O)NCCNS(=O)(=O)c3cccc4c(N(C)C)cccc34)c(Cl)c2)c2ncn(C(C)C)c2n1` [VMY-1-101, 2-Chloro-N-[2-(5-dimethylamino-naphthalene-1-sulfonylamino)-ethyl]-4-[2-(1-hydroxymethyl-propylamino)-9-isopropyl-9H-purin-6-ylamino]-benzamide], the inhibition at 0.1 µM in [1] was found to be 62%; in [2], 16 ± 3%; in assay [3], 87%; in assay [4] it was 40 ± 3%; in assay [5], 57%. Also, the figures for the IC50 in [6] and in [7] were 19.1 ± 1.14 µM and 4.86 ± 1.24 µM, respectively. Moreover, the “effect on cell cycle progression (G2/M phase)” value in assay [8] (MCF-7, 5, 10 μM, 24 hrs) is “induced the cell cycle progression in G2/M phase”; in [9] (MDA-MB-231, 5, 10 μM, 24 hrs), “induced the cell cycle progression in G2/M phase”. Further, the “% G1” value was 63.56 ± 1.20% in [8] (MCF-7, 24 hrs, 5 μM) and 51.5 ± 0.50% in assay [9] (MDA-MB-231, 24 hrs, 5 μM). Moreover, the “% S” value in assay [8] (MCF-7, 24 hrs, 5 μM) is 10.75 ± 0.88%; in [9] (MDA-MB-231, 24 hrs, 5 μM), 25.05 ± 0.45%. Also, the “% Sub-G1” value in [8] (MCF-7, 24 hrs, 5 μM) came to 2.08 ± 0.19%; in [9] (MDA-MB-231, 24 hrs, 5 μM), 2.01 ± 0.19%. In assay [10], the PARP cleavage entry was “moderate cleavage of the 116-kDa full length PARP into an 89-kDa fragment”. Also, the “protein level of full length caspase 3 and 7” value in [10] was “decrease in protein level of full length caspase 3 and 7”.
